Results: patent US20130171224A1, “TREATMENT OF BIOFILMS” (priority 2010, published 2013)
Values joined by “and” are separate entries in the source; they are usually repeats but may differ in a detail not shown here. Equal values may be shown once.

How the values were obtained:
Format in all cases: cell-based
[1] = tested on: Pseudomonas aeruginosa ATCC9027 biofilm; assay: Challenge of NUNC-TSP biofilms to polyphosphate (MIC, MBC, MBEC)
Description: (§1) The bacteria used in this study were Staphylococcus aureus ATCC6538, Candida albicans ATCC10231 and Pseudomonas aeruginosa ATCC9027. Pure cultures were maintained on nutrient agar at 37° C. The NUNC-TSP transferable solid phase screening system (NUNC, Roskilde, Denmark) was used to generate up to 96 reproducible biofilms in a microtitre plate. Briefly, a suspension of each bacteria was prepared in 0.9% saline solution and adjusted to a McFarland's standard no. 1.0. This bacterial suspension was then diluted 1:30 in sterile TSB and 150 μl aliquots aseptically transferred to a 96 well Calgary device. Plates were incubated for 24 and 72 hours and then submerged in 150 μl 0.9% saline solution to remove planktonic bacteria from the biofilm surface. A stock solution of polyphosphate (80 mg/ml) was prepared in distilled water and filter sterilised (0.22 μm). This was subsequently diluted 1:2 in triplicate across the wells in TSB to a final concentration of 0.04 mg/ml. Each well also consisted of positive controls (TSB only in absence of antimicrobial agent) and negative controls. NUNC solid phase lids were subsequently transferred to this challenge plate and incubated overnight (37° C.). Wells were visually inspected for turbidity signifying bacterial growth. The minimum inhibitory concentration was defined as the lowest concentration of polyphosphate to prevent bacterial growth. Aliquots of wells (10 μl) showing no visual signs of turbidity were transferred to fresh TSB stocks and incubated for a further 8 hours (37° C.). This allowed the determination of the minimum bactericidal concentration (MBC). Subsequent to this, challenged NUNC peg lids were transferred to a 96 well recovery plate containing TSB media only. Plates were incubated overnight and visualised for bacterial growth. This allowed the determination of the minimum biofilm eradication concentration (MBEC). Any growth in the media corresponded to planktonic bacteria seeding the media from a viable biofilm. Absence of turbidity therefore signified bacterial eradication at this respective concentration of polyphosphate.

[2] = tested on: Staphylococcus aureus ATCC6538 biofilm; assay: as above
Description: as §1

[3] = tested on: Pseudomonas aeruginosa ATCC9027 biofilm; assay: Combinational effects between ionic silver and polyphosphate (FIC) on NUNC biofilms; design: MIC in combination (A) / MIC in combination (B): unit not given beside the values; conditions: for MIC alone mg/ml (A): agent A alone; for MIC in combination (A): agent A in combination with B; for MIC alone mg/ml (B): agent B alone; for MIC in combination (B): agent B in combination with A
Description: (§2) The bacteria used in this study were Staphylococcus aureus ATCC6538, Candida albicans ATCC10231 and Pseudomonas aeruginosa ATCC9027. Pure cultures were maintained on nutrient agar at 37° C. The NUNC-TSP transferable solid phase screening system (NUNC, Roskilde, Denmark) was used to generate up to 96 reproducible biofilms in a microtitre plate. Briefly, a suspension of each bacteria was prepared in 0.9% saline solution and adjusted to a McFarland's standard no. 1.0. This bacterial suspension was then diluted 1:30 in sterile TSB and 150 μl aliquots aseptically transferred to a 96 well Calgary device. […] Biofilms were generated as described previously. […] Sigma-Aldrich, Germany) was prepared in water (40 mg/ml) and filter sterilised (0.22 μm). Concentrations of polyphosphate were prepared horizontally across the NUNC 96 well plate, whilst ionic silver was prepared vertically. […] This permitted a diverse array of drug concentration combinations to be tested in a single investigation.

[4] = tested on: Staphylococcus aureus ATCC6538 biofilm; assay: as above; design: MIC in combination (A) / MIC in combination (B): unit not given beside the values; conditions: 24 hour S. aureus biofilm
Description: as §2

[5] = tested on: Candida albicans ATCC10231 biofilm; assay: as above; design: MIC in combination (A) / MIC in combination (B): unit not given beside the values; conditions: 72 hour C. albicans biofilm
Description: as §2

[6] = 24 hour monospecies P. aeruginosa biofilm
[7] = 24 hour monospecies S. aureus biofilm

polyphosphate
MBC [1, 6]: >80 mg/mL | MBEC [1, 6]: >80 mg/mL | MIC [1, 6]: 5 mg/mL and 5.0 mg/mL | MIC ([1]; 72 hour P. aeruginosa biofilm): 80 mg/mL | MBC [2, 7]: 10 mg/mL | MBEC [2, 7]: 40 to 80 mg/mL | MIC [2, 7]: 1.25 mg/mL | MIC ([2]; 72 hour S. aureus biofilm): 20 mg/mL | FIC (A) ([3]; 24 hour P. aeruginosa biofilm): 0.125 | MIC alone mg/ml (A) ([3]; 24 hour P. aeruginosa biofilm): 5 mg/mL | MIC in combination (A) ([3]; 24 hour P. aeruginosa biofilm): 0.625 | FIC (A) ([3]; 72 hour P. aeruginosa biofilm): 0.5 | MIC alone mg/ml (A) ([3]; 72 hour P. aeruginosa biofilm): 80 mg/mL | MIC in combination (A) ([3]; 72 hour P. aeruginosa biofilm): 40 | FIC (A) [4]: 0.012 | MIC alone mg/ml (A) ([4]; agent A alone): 1.25 mg/mL | MIC in combination (A) ([4]; agent A in combination with B): 0.015 | FIC (A) [5]: 0.006 | MIC alone mg/ml (A) ([5]; agent A alone): 5 mg/mL | MIC in combination (A) ([5]; agent A in combination with B): 0.03

O=[N+]([O-])[O-].[Ag+] [silver nitrate, reference compound]
FIC (B) ([3]; 24 hour P. aeruginosa biofilm): 0.0625 | MIC alone mg/ml (B) ([3]; 24 hour P. aeruginosa biofilm): 10 mg/mL | MIC in combination (B) ([3]; 24 hour P. aeruginosa biofilm): 0.625 | FIC (B) ([3]; 72 hour P. aeruginosa biofilm): 0.1 | MIC alone mg/ml (B) ([3]; 72 hour P. aeruginosa biofilm): 0.6 mg/mL | MIC in combination (B) ([3]; 72 hour P. aeruginosa biofilm): 0.07 | FIC (B) [4]: 1 | MIC alone mg/ml (B) ([4]; agent B alone): 0.015 mg/mL | MIC in combination (B) ([4]; agent B in combination with A): 0.015 | FIC (B) [5]: 0.428 | MIC alone mg/ml (B) ([5]; agent B alone): 0.07 mg/mL | MIC in combination (B) ([5]; agent B in combination with A): 0.03
